Where a name gives a salt, the structure may show the parent alone. Read-outs that look alike come from different tables or passages of the source.
Assays:
CDK2/Cyclin A = CDK2/Cyclin A (Homo sapiens, UniProt P24941); assay: Inhibition of CDK2/Cyclin A Retinoblastoma Kinase Activity; format: biochemical; details: for Ki: apparent Ki, CDK2/proteolyzed cyclin A, Rb fragment substrate, 25 μM ATP
In short: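 Human CDK2, baculovirus/insect-cell expressed, complexed with proteolyzed cyclin A (10 nM or 19 nM CDK2) phosphorylates an Rb fragment with 25 μM [32P/33P]ATP at pH 7.4, 30° C, for 60 or 75 minutes under initial-rate conditions. Filter-captured radioactivity is read by phosphorimager; apparent Ki from competitive-inhibition fits.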

[1] = biological target: human CDK4 and genetically truncated (1-264) cyclin D3 (Homo sapiens, UniProt P11802); assay: Inhibition of CDK4/Cyclin D Retinoblastoma Kinase Activity; format: biochemical; details: for Ki: apparent Ki, CDK4/truncated cyclin D3, Rb fragment substrate, 25 μM ATP
In short: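 Read-out: 32P/33P incorporation into Rb fragment (386-928) captured on nitrocellulose, phosphorimager. Enzyme 5 nM CDK4/cyclin D3(1-264) from insect cells; ATP 25 μM, pH 7.4, 30 °C, 20 min (60 min for tight binders). Ki from competitive fits.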

HCT-116 cell line = assay: Inhibition of cell growth, tetrazolium salt (MTT) assay; format: cell-based; details: for IC50: Homo sapiens, HCT-116, 120 h, MTT, three to five days, read-out: HCT-116 IC50; for HCT-116 % Inhibition at 0.25 μM: 0.25 μM compound
In short: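 Growth inhibition is scored relative to cells receiving only 0.5% (v/v) DMSO. Plated cells rest 4 h, then take compound for three to five days at 37° C; MTT reduction to formazan is read at 540 nm.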

[2] = 0.1 μM compound, HCT-116, Table 3

Sequence of human CDK4 and genetically truncated (1-264) cyclin D3 (P11802 whole entry, the tested form may be a part): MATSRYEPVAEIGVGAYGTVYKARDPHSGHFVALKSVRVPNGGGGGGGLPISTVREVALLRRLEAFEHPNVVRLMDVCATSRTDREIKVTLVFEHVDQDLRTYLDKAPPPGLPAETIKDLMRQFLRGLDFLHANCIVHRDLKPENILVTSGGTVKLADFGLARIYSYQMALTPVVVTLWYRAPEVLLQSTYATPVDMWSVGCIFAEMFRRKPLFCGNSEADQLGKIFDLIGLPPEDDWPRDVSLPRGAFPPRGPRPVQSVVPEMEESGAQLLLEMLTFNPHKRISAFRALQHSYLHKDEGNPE
Sequence of human CDK4 and genetically truncated (1-264) cyclin D3 (P30281 1-264 partner): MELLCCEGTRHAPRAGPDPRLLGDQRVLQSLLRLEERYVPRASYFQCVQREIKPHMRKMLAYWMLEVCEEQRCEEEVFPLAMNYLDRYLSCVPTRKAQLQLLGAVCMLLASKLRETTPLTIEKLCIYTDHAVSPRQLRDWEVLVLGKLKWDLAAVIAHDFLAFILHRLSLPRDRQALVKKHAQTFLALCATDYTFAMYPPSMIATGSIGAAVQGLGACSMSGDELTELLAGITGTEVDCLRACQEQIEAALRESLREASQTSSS

Row | SMILES | Ki (CDK2/Cyclin A) [nM] | Ki [1] [nM] | IC50 (HCT-116 cell line; first HCT-116 column (c4)) [nM] | IC50 (HCT-116 cell line; second HCT-116 column (c5)) [nM] | also measured
1 | COC(=O)CC(=O)N1CCC(Nc2nc(N)c(C(=O)c3c(F)cccc3F)s2)CC1 [Example R2] | – | – | – | – | CDK2 % Inhibition at 0.03 μM (CDK2/Cyclin A; at 0.03 μM): −24%; CDK4 % Inhibition at 0.03 μM ([1]; at 0.03 μM): 13%; HCT-116 % Inhibition at 0.1 μM (HCT-116 cell line; HCT-116 cells, at 0.1 μM): 1%; HCT-116 5 Inhibition at 0.25 μM (HCT-116 cell line; HCT-116 cells): 49
2 | Cc1ncc(-c2ccc(S(=O)(=O)N3CCC(Nc4nc(N)c(C(=O)c5c(F)cccc5F)s4)CC3)cc2)[nH]1 [Example F33, 1-(4-Amino-2-{1-[4-(2-methyl-1H-imidazol-4-yl)-benzenesulfonyl]-piperidin-4-ylamino}-thiazol-5-yl)-1-(2,6-difluoro-phenyl)-methanone Dihydrochloride] | 0.28 | 0.28 | 160 | 1600 | –
3 | Nc1nc(NC2CCN(S(=O)(=O)c3ccc(CCN4CCOCC4)nc3)CC2)sc1C(=O)c1c(F)cccc1F [Example N3, (4-Amino-2-{1-[6-(2-morpholin-4-yl-ethyl)-pyridine-3-sulfonyl]-piperidin-4-ylamino}-thiazol-5-yl)-(2,6-difluoro-phenyl)-methanone Hydrochloride Salt.] | 1.1 | 0.76 | 170 | > 500 | –
4 | Nc1nc(NC2CCN(C(=O)c3cc4ccccc4s3)CC2)sc1C(=O)c1c(F)cccc1F [Example R17] | – | – | – | – | CDK2 % Inhibition at 0.03 μM (CDK2/Cyclin A; at 0.03 μM): 66%; CDK4 % Inhibition at 0.03 μM ([1]; at 0.03 μM): 73%; HCT-116 % Inhibition at 0.1 μM (HCT-116 cell line; HCT-116 cells, at 0.1 μM): 0%; HCT-116 5 Inhibition at 0.25 μM (HCT-116 cell line; HCT-116 cells): 45
5 | COc1ccc(S(=O)(=O)N2CCC(Nc3nc(N)c(C(=O)c4c(F)cccc4F)s3)CC2)cc1 [Example P20] | – | – | – | – | CDK2 % Inhibition at 0.03 μM (CDK2/Cyclin A; 0.03 μM compound, Table 3): 78%; CDK4 % Inhibition at 0.03 μM ([1]; 0.03 μM compound, Table 3): 76%; HCT-116 % Inhibition at 0.1 μM (HCT-116 cell line; [2]): 23%; HCT-116 % Inhibition at 0.25 μM (HCT-116 cell line; HCT-116, Table 3): 43%
6 | CCOC(=O)NC(=O)N1CCC(Nc2nc(N)c(C(=O)c3c(F)cccc3F)s2)CC1 [Example O38] | – | – | – | – | CDK2 % Inhibition At 0.03 μM (CDK2/Cyclin A; 0.03 μM compound, Table 2): 29%; CDK4 % Inhibition at 0.03 μM ([1]; 0.03 μM compound, Table 2): 15%; HCT-116 % Inhibition at 0.25 μM (HCT-116 cell line; HCT-116, Table 2): 29%
7 | CC(=O)Nc1ccccc1C(=O)N1CCC(Nc2nc(N)c(C(=O)c3c(F)cccc3F)s2)CC1 [Example R111] | – | – | – | – | CDK2 % Inhibition at 0.03 μM (CDK2/Cyclin A; at 0.03 μM): 11%; CDK4 % Inhibition at 0.03 μM ([1]; at 0.03 μM): 25%; HCT-116 % Inhibition at 0.1 μM (HCT-116 cell line; HCT-116 cells, at 0.1 μM): 4%; HCT-116 5 Inhibition at 0.25 μM (HCT-116 cell line; HCT-116 cells): 52
8 | CN1CCC(c2ccc(S(=O)(=O)N3CCC(Nc4nc(N)c(C(=O)c5c(F)cccc5F)s4)CC3)cc2)C1 (centres unmarked) [Example F25, 1-(4-Amino-2-[1-[4-(1-methyl-pyrrolidin-3-yl)-benzenesulfonyl]-piperidin-4-ylamino]-thiazol-5-yl}-1-(2,6-difluoro-phenyl)-methanone Dihydrochloride] | 1.5 | 0.93 | 80 | 300 | –
9 | CN1CC[C@@H](c2ccc(S(=O)(=O)N3CCC(Nc4nc(N)c(C(=O)c5c(F)cccc5F)s4)CC3)cc2)C1 [Example F53, (4-Amino-2-{1-[4-(1-methyl-pyrrolidin-3S-yl)-benzenesulfonyl]-piperidin-4-ylamino}-thiazol-5-yl)-(2,6-difluoro-phenyl)-methanone] | 1.3 | 0.61 | 90 | 500 | –
10 | Nc1nc(NC2CCN(S(=O)(=O)CCN3CCCC3)CC2)sc1C(=O)c1c(F)cccc1F [Example K35, 1-{4-Amino-2-[1-(2-pyrrolidin-1-yl-ethanesulfonyl)-piperidin-4-ylamino]-thiazol-5-yl}-1-(2,6-difluoro-phenyl)-methanone.] | 3 | 1.1 | 140 | 450 | –
11 | CN(C)c1ccc(NC(=O)N2CCC(Nc3nc(N)c(C(=O)c4c(F)cccc4F)s3)CC2)cc1 [Example B2, 4-[4-Amino-5-(2,6-difluoro-benzoyl)-thiazol-2-ylamino]-piperidine-1-carboxylic Acid (4-Dimethylamino-phenyl)-amide] | 28 | 110 | 350 | 950 | –
12 | COC(=O)c1sccc1S(=O)(=O)N1CCC(Nc2nc(N)c(C(=O)c3c(F)cccc3F)s2)CC1 [Example F10, 3-{4-[4-Amino-5-(2,6-difluoro-benzoyl)-thiazol-2-ylamino]-piperidine-1-sulfonyl}-thiophene-2-carboxylic acid methyl ester] | 7.9 | 5.6 | 280 | < 5000 | –
13 | Nc1nc(NC2CCN(C(=O)c3cccc(O)c3)CC2)sc1C(=O)c1c(F)cccc1F [Example R138] | – | – | – | – | CDK2 % Inhibition at 0.03 μM (CDK2/Cyclin A; at 0.03 μM): 67%; CDK4 % Inhibition at 0.03 μM ([1]; at 0.03 μM): 70%; HCT-116 % Inhibition at 0.1 μM (HCT-116 cell line; HCT-116 cells, at 0.1 μM): 0%; HCT-116 5 Inhibition at 0.25 μM (HCT-116 cell line; HCT-116 cells): 40
14 | Nc1nc(NC2CCN(S(=O)(=O)CCNCCN3CCCC3)CC2)sc1C(=O)c1c(F)cccc1F [Example K28, (4-Amino-2-{1-[2-(2-pyrrolidin-1-yl-ethylamino)-ethanesulfonyl]-piperidin-4-ylamino}-thiazol-5-yl)-(2,6-difluoro-phenyl)-methanone Trifluoroacetic Acid Salt.] | 10 | 2.8 | > 5000 | > 5000 | –
15 | CN1CCCC(COc2ccc(S(=O)(=O)N3CCC(Nc4nc(N)c(C(=O)c5c(F)cccc5F)s4)CC3)cn2)C1 (centres unmarked) [Example H7, 1-[4-Amino-2-{1-[6-(1-methyl-piperidin-3RS-ylmethoxy)-pyridine-3-sulfonyl]-piperidin-4-ylamino}-thiazol-5-yl)-1-(2,6-difluoro-phenyl)-methanone Trifluoroacetic Acid Salt] | 0.8 | 0.21 | 40 | 250 | –
16 | Nc1nc(NC2CCN(S(=O)(=O)c3ccc(-n4ccnc4)nc3)CC2)sc1C(=O)c1c(F)cccc1F [Example G25, 1-{4-Amino-2-[1-(6-imidazol-1-yl-pyridine-3-sulfonyl)-piperidin-4-ylamino]-thiazol-5-yl}-1-(2,6-difluoro-phenyl)-methanone Trifluoroacetic Acid Salt] | 0.27 | 0.36 | 63 | > 500 | –
17 | Nc1nc(NC2CCN(C(=O)c3cccc4ccccc34)CC2)sc1C(=O)c1c(F)cccc1F [Example Q62] | – | – | – | – | CDK2 % Inhibition at 0.03 μM (CDK2/Cyclin A; 0.03 μM compound, Table 4): 33%; CDK4 % Inhibition at 0.03 μM ([1]; 0.03 μM compound, Table 4): 49%; HCT-116 % Inhibition at 0.1 μM (HCT-116 cell line; 0.1 μM compound, HCT-116, Table 4): 12%; HCT-116 % Inhibition at 0.25 μM (HCT-116 cell line; HCT-116, Table 4): 53%
18 | CCCCCOc1ccc(C(=O)N2CCC(Nc3nc(N)c(C(=O)c4c(F)cccc4F)s3)CC2)cc1 [Example R14] | – | – | – | – | CDK2 % Inhibition at 0.03 μM (CDK2/Cyclin A; at 0.03 μM): 19%; CDK4 % Inhibition at 0.03 μM ([1]; at 0.03 μM): 49%; HCT-116 % Inhibition at 0.1 μM (HCT-116 cell line; HCT-116 cells, at 0.1 μM): 0%; HCT-116 5 Inhibition at 0.25 μM (HCT-116 cell line; HCT-116 cells): 46
19 | Cc1ccc2cc(S(=O)(=O)N3CCC(Nc4nc(N)c(C(=O)c5c(F)cccc5F)s4)CC3)ccc2c1 [Example P88] | – | – | – | – | CDK2 % Inhibition at 0.03 μM (CDK2/Cyclin A; 0.03 μM compound, Table 3): 44%; CDK4 % Inhibition at 0.03 μM ([1]; 0.03 μM compound, Table 3): 49%; HCT-116 % Inhibition at 0.1 μM (HCT-116 cell line; [2]): 7%; HCT-116 % Inhibition at 0.25 μM (HCT-116 cell line; HCT-116, Table 3): 34%
20 | CC(=O)Nc1ccc(C(=O)N2CCC(Nc3nc(N)c(C(=O)c4c(F)cccc4F)s3)CC2)cc1 [Example R146] | – | – | – | – | CDK2 % Inhibition at 0.03 μM (CDK2/Cyclin A; at 0.03 μM): 74%; CDK4 % Inhibition at 0.03 μM ([1]; at 0.03 μM): 83%; HCT-116 % Inhibition at 0.1 μM (HCT-116 cell line; HCT-116 cells, at 0.1 μM): 0%; HCT-116 5 Inhibition at 0.25 μM (HCT-116 cell line; HCT-116 cells): 10
21 | CC[C@H](NCCS(=O)(=O)N1CCC(Nc2nc(N)c(C(=O)c3c(F)cccc3F)s2)CC1)c1ccccc1 [Example K42, (4-Amino-2-{1-[2-(1S-phenyl-propylamino)-ethanesulfonyl]-piperidin-4-ylamino}-thiazol-5-yl)-(2,6-difluoro-phenyl)-methanone] | 1 | 1.9 | 50 | 150 | –

Reference: patent US20050101595A1, “N-containing cycloalkyl-substituted amino-thiazole derivatives and pharmaceutical compositions for inhibiting cell proliferation and methods for their use” (PFIZER INC., priority 2003, published 2005)
